The test system of this test is primary human T-cells. The experiment in a line: IL2 secretion measurements in CD3-stimulated T-cells. Format: cell-based. Particulars: CD3 condition; for Emax / Emax IL2 (% activation): IL2 after 24 hours, 20 μM reference compound A1 = 100%; for Emax: read-out: Emax IL2 (% activation); for EC50: IL2 secretion after 24 hours, read-out: Tcell IL2 CD3 EC50. In a few lines: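 Expanded primary human T-cells (100k/well) were stimulated on CD3 antibody-coated or PBS-coated plates with compounds in 5–6 point dose response from 20 or 10 μM top final (dilution factor 3.333, 0.2% DMSO final). IL2 in 24 h supernatants was measured by ProQuantum immunoassay or ELISA, normalized to DMSO (0%) and 20 μM reference compound A1 (100%) to fit EC50 and Emax.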

Where two headings read alike, the source gives them in different places.

Consider `CC(C)(c1nnc(-c2ccc3c(c2)N(Cc2ccc(Oc4cccc(OC(F)(F)F)c4)cc2)C(=O)[C@@H](N)CS3(=O)=O)o1)S(C)(=O)=O` [Example 40, (3R)-3-amino-7-[5-(1-methyl-1-methylsulfonyl-ethyl)-1,3,4-oxadiazol-2-yl]-1,1-dioxo-5-[[4-[3-(trifluoromethoxy)phenoxy]phenyl]methyl]-2,3-dihydro-126,5-benzothiazepin-4-one], for which, for the setting “Homo sapiens, T-cell, 24 h”, the Emax came out at 196% and the EC50 was 0.801 µM.

Turning to `COc1cc(Cl)cc(Oc2ccc(CN3C(=O)[C@@H](N)CS(=O)(=O)c4ccc(-c5nnc(C(C)(C)S(C)(=O)=O)o5)cc43)cc2)c1` [Example 41, (3R)-3-amino-5-[[4-(3-chloro-5-methoxy-phenoxy)phenyl]methyl]-7-[5-(1-methyl-1-methylsulfonyl-ethyl)-1,3,4-oxadiazol-2-yl]-1,1-dioxo-2,3-dihydro-1λ6,5-benzothiazepin-4-one], for the setting “Homo sapiens, T-cell, 24 h”, the Emax came out at 115% and the EC50 came out at 1.46 µM.

As to `COc1cccc(Oc2ccc(CN3C(=O)[C@@H](N)CS(=O)(=O)c4ccc(-c5nnc(C(C)(C)S(C)(=O)=O)o5)cc43)cc2)c1` [Example 42], under “Homo sapiens, T-cell, 24 h”, the Emax is 125% and the EC50 is 3.13 µM.

As for `CC(C)(c1nc(-c2cc3c(cc2F)S(=O)(=O)C[C@H](N)C(=O)N3Cc2ccc(Cl)cc2)no1)S(C)(=O)=O` [Example 43, (3R)-3-amino-5-[(4-chlorophenyl)methyl]-8-fluoro-7-[5-(1-methyl-1-methylsulfonyl-ethyl)-1,2,4-oxadiazol-3-yl]-1,1-dioxo-2,3-dihydro-1λ6,5-benzothiazepin-4-one], for the setting “Homo sapiens, T-cell, 24 h”, the maximal response (Emax) stood at 163% and the EC50 was 0.131 µM.

On to `CC(C)(c1nc(-c2cc3c(cc2F)S(=O)(=O)C[C@H](N)C(=O)N3Cc2ccc(OC(F)(F)F)cc2)no1)S(C)(=O)=O` [Example 44, (3R)-3-amino-8-fluoro-7-[5-(1-methyl-1-methylsulfonyl-ethyl)-1,2,4-oxadiazol-3-yl]-1,1-dioxo-5-[[4-(trifluoromethoxy)phenyl]methyl]-2,3-dihydro-1λ6,5-benzothiazepin-4-one], for which, for the setting “Homo sapiens, T-cell, 24 h”, the maximal effect (Emax) was found to be 192% and the EC50 turned out to be 0.325 µM.

With `CC(C)(c1nc(-c2cc3c(cc2F)S(=O)(=O)C[C@H](N)C(=O)N3Cc2ccc(-c3noc(C4CC4)n3)cc2)no1)S(C)(=O)=O` [Example 45, (3R)-3-amino-5-[[4-(5-cyclopropyl-1,2,4-oxadiazol-3-yl)phenyl]methyl]-8-fluoro-7-[5-(1-methyl-1-methylsulfonyl-ethyl)-1,2,4-oxadiazol-3-yl]-1,1-dioxo-2,3-dihydro-1λ6,5-benzothiazepin-4-one], under “Homo sapiens, T-cell, 24 h”, the Emax amounted to 190% and the EC50 was 0.195 µM.

On to `CC(C)(c1nc(-c2cc3c(cc2F)S(=O)(=O)C[C@H](N)C(=O)N3Cc2ccc(-c3noc(C(F)(F)F)n3)cc2)no1)S(C)(=O)=O` [Example 46, (3R)-3-amino-8-fluoro-7-[5-(1-methyl-1-methylsulfonyl-ethyl)-1,2,4-oxadiazol-3-yl]-1,1-dioxo-5-[[4-[5-(trifluoromethyl)-1,2,4-oxadiazol-3-yl]phenyl]methyl]-2,3-dihydro-1λ6,5-benzothiazepin-4-one], for which, where the note is “Homo sapiens, T-cell, 24 h”, the Emax worked out at 317% and the EC50 is 0.491 µM.

In the case of `CC(C)(c1nnc(-c2ccc3c(c2)N(Cc2ccc(Oc4cccc(OC(F)F)c4)cc2)C(=O)[C@@H](N)CS3(=O)=O)o1)S(C)(=O)=O` [Example 47, (3R)-3-amino-5-[[4-[3-(difluoromethoxy)phenoxy]phenyl]methyl]-7-[5-(1-methyl-1-methylsulfonyl-ethyl)-1,3,4-oxadiazol-2-yl]-1,1-dioxo-2,3-dihydro-1λ6,5-benzothiazepin-4-one], where the note is “Homo sapiens, T-cell, 24 h”, the Emax was found to be 135% and the EC50 was 1.37 µM.

For `CC(C)(c1nc(-c2cc3c(cc2F)S(=O)(=O)C[C@H](N)C(=O)N3Cc2ccc(Oc3ccccc3)nc2)no1)S(C)(=O)=O` [Example 48, (3R)-3-amino-8-fluoro-7-[5-(1-methyl-1l-methylsulfonyl-ethyl)-1,2,4-oxadiazol-3-yl]-1,1-dioxo-5-[(6-phenoxy-3-pyridyl)methyl]-2,3-dihydro-1 λ6,5-benzothiazepin-4-one], under “Homo sapiens, T-cell, 24 h”, the Emax is 165% and the EC50 was found to be 1.05 µM.

Take `COc1ccc(-c2ccc(CN3C(=O)[C@@H](N)CS(=O)(=O)c4ccc(-c5nnc(C(C)(C)S(C)(=O)=O)o5)cc43)cc2)c(C)c1` [Example 49, (3R)-3-amino-5-[[4-(4-methoxy-2-methyl-phenyl)phenyl]methyl]-7-[5-(1-methyl-1-methylsulfonyl-ethyl)-1,3,4-oxadiazol-2-yl]-1,1-dioxo-2,3-dihydro-1λ6,5-benzothiazepin-4-one]: where the note is “Homo sapiens, T-cell, 24 h”, the Emax stood at 34% and the EC50 was above 10 µM.

For `COc1ccc(-c2ccc(CN3C(=O)[C@@H](N)CS(=O)(=O)c4cc(F)c(-c5noc(C(C)(C)S(C)(=O)=O)n5)cc43)cc2)cc1` [Example 50, (3R)-3-amino-8-fluoro-5-[[4-(4-methoxyphenyl)phenyl]methyl]-7-[5-(1-methyl-1-methylsulfonyl-ethyl)-1,2,4-oxadiazol-3-yl]-1,1-dioxo-2,3-dihydro-1λ6,5-benzothiazepin-4-one], where the note is “Homo sapiens, T-cell, 24 h”, the Emax is 99% and the EC50 was 0.216 µM.

As to `CC(C)(c1nc(-c2cc3c(cc2F)[S+]([O-])C[C@H](N)C(=O)N3Cc2ccc(Oc3ccccc3)cc2)no1)S(C)(=O)=O` (stereo partly drawn) [Example 51, (3R)-3-amino-8-fluoro-7-[5-(1-methyl-1-methylsulfonyl-ethyl)-1,2,4-oxadiazol-3-yl]-1-oxo-5-[(4-phenoxyphenyl)methyl]-2,3-dihydro-1λ4,5-benzothiazepin-4-one], the “Emax IL2 (% activation)” value is 101%. Further, the EC50 (Homo sapiens, T-cell, 24 h) amounted to 0.897 µM.

On to `CC(C)(c1nc(-c2cc3c(cc2F)[S+]([O-])C[C@H](N)C(=O)N3Cc2ccc(Oc3ccccc3)cc2)no1)S(C)(=O)=O` (stereo partly drawn) [Example 52, (3R)-3-amino-8-fluoro-7-[5-(1-methyl-1-methylsulfonyl-ethyl)-1,2,4-oxadiazol-3-yl]-1-oxo-5-[(4-phenoxyphenyl)methyl]-2,3-dihydro-1λ4,5-benzothiazepin-4-one], for which the “Emax IL2 (% activation)” value is 253% and the EC50 was 1.17 µM.

As for `CC(C)(c1nc(-c2cc3c(cc2F)S(=O)(=O)C[C@H](N)C(=O)N3Cc2ccc(C3CCOCC3)cc2)no1)S(C)(=O)=O` [Example 53, (3R)-3-amino-8-fluoro-7-[5-(1-methyl-1-methylsulfonyl-ethyl)-1,2,4-oxadiazol-3-yl]-1,1-dioxo-5-[(4-tetrahydropyran-4-ylphenyl)methyl]-2,3-dihydro-1λ6,5-benzothiazepin-4-one], for the setting “Homo sapiens, T-cell, 24 h”, the Emax worked out at 96% and the EC50 was found to be 4.36 µM.

In the case of `CS(=O)(=O)Cn1nnc(-c2cc3c(cc2F)S(=O)(=O)C[C@H](N)C(=O)N3Cc2ccc(Oc3ccccc3)cc2)n1` [Example 54, (3R)-3-amino-8-fluoro-7-[2-(methylsulfonylmethyl)tetrazol-5-yl]-1,1-dioxo-5-[(4-phenoxyphenyl)methyl]-2,3-dihydro-1λ6,5-benzothiazepin-4-one], for the setting “Homo sapiens, T-cell, 24 h”, the Emax was 132% and the EC50 was 1.04 µM.

On to `CS(=O)(=O)Cn1nnnc1-c1cc2c(cc1F)S(=O)(=O)C[C@H](N)C(=O)N2Cc1ccc(Oc2ccccc2)cc1` [Example 55, (3R)-3-amino-8-fluoro-7-[1-(methylsulfonyl-methyl)tetrazol-5-yl]-1,1-dioxo-5-[(4-phenoxyphenyl)methyl]-2,3-dihydro-1λ6,5-benzothiazepin-4-one], for which, under “Homo sapiens, T-cell, 24 h”, the Emax stood at 85% and the EC50 turned out to be 4.18 µM.

For orientation: Emax means the maximal effect, on the per cent scale that the assay sets. In general, EC50 refers to the concentration needed to bring the measured effect to its halfway point.
